The source of these data is patent US9017646B2, “Process of evaluating blood-brain barrier permeability of stroke rat by using fluorescent substance” (Institute of Nuclear Energy Research, Atomic Energy Council, priority 2012, dated 2015).

The series concerns blood-brain barrier of stroke rat. The series can be described thus: Blood-brain barrier permeability of stroke rat (middle cerebral artery occlusion model) by Evans blue dye, optical image and IVIS 100 fluorescence imaging of the whole brain. In kind it is in vivo, SD (Sprague Dawley) rat. Conditions: for presence of blue dye in brain tissue (optical image, FIG. 2): 30 minutes distribution, transcardial perfusion. The source says: FIG. 1 is a schematic view of an evaluation process of the present invention. As shown, the invention is a process of evaluating the blood-brain barrier permeability of a stroke rat by using fluorescent substance. The process of the invention uses Evans blue dye having spontaneous fluorescence properties, in combination with the use of a new non-invasive in vivo imaging system (IVIS), to obtain fluorescent signals so as to assess the change in the blood-brain barrier permeability of rodents after a cerebral artery stroke model surgery. In operation, an Evans blue dye 11 is injected into a stroke rat 1 of middle cerebral artery occlusion model. A non-invasive in vivo imaging system 12 is used to detect the fluorescence distribution of the whole brain, and obtain images combined by the fluorescence images and optical images for the whole brain tissue. Thereby, the change in the blood-brain barrier permeability of the stroke rat can be completely realized.
FIG. 2 is an optical image of the whole brain tissue after the injection of Evans blue dye according to the invention. FIG. 3 is an integrated image combined the fluorescence images with the optical images by using an IVIS 100 system according to the invention. As shown, in a preferred embedment, the invention uses a SD (Sprague Dawley) rat as the stroke animal model subject to transient bilateral common carotid artery and right middle cerebral artery ligation. After the rat is anesthetized, the surgery procedure is described roughly as follows. The skull of the rat is opened by drilling in order to find the right middle cerebral artery. A 10-0 needle is used to take the right middle cerebral artery and rotate it 90 degrees. It is ensured that the blood cannot flow smoothly under the observation by a microscope. Then, both sides of the common carotid artery are subject to ligation for 90 minutes. After the stitches have been removed, wounds are sutured to allow the rat to be recovered.
Three groups are provided in the experiment, in which a sham group is a rat whose skull is opened without the bilateral common carotid artery and right middle cerebral artery ligation so as to exclude the impact caused by drilling the skull; a control group is the blank rat without any surgery; and a surgery group is a stroke rat whose skull is opened to perform the middle cerebral artery ligation.
Evans blue dye is dissolved in saline and injected intravenously into the rat via its tail 24 hours after surgery. After distribution for 30 minutes, the rat is anesthetized for transcardial perfusion in order to wash away the dye within the blood vessels. The IVIS 100 (Caliper) system is used to detect the fluorescence distribution of the whole brain tissue. The Evans blue dye can be excited by the light of 620 nanometer (nm) wavelengths to emit the light of 680 nm wavelength which can be detected by the IVIS 100 system and further converted into images (as shown in FIG. 3).

SMILES strings stand for the structures.

Consider `Cc1cc(-c2ccc(/N=N/c3ccc4c(S(=O)(=O)O)cc(S(=O)(=O)O)c(N)c4c3O)c(C)c2)ccc1/N=N/c1ccc2c(S(=O)(=O)O)cc(S(=O)(=O)O)c(N)c2c1O` [Evans blue dye, Evans blue], for which the “fluorescence of whole brain tissue (IVIS 100, excitation 620 nm, emission 680 nm, FIG. 3)” value is, setting by setting: (control group (blank rat without any surgery)) “fluorescence is not obvious in the brain tissue”; (sham group (skull opened without ligation)) “fluorescence is not obvious in the brain tissue”; (surgery group (stroke rat), 24 hours after stroke surgery) “fluorescence signals are detected in the right brain”. The “presence of blue dye in brain tissue (optical image, FIG. 2)” value is listed as “no presence of the blue dye in the brain tissue” (control group (blank rat without any surgery), dye i.v. via tail); “no presence of the blue dye in the brain tissue” (sham group (skull opened without ligation), dye i.v. via tail 24 hours after surgery); “leak into the interstitial cells of the right brain” (surgery group (stroke rat), dye i.v. via tail 24 hours after surgery).
